EPA's ToxValDB 9.5 (doi:10.2903/j.efsa.2012.2504)

What was measured:
Rattus norvegicus = conditions: for LD50: acute, mortality
Anas platyrhynchos = conditions: oral, mortality

| Compound | LD50 (Rattus norvegicus; oral) [mg/kg] | LC50 (Colinus virginianus; acute, oral, diet, mortality) [mg/kg-day] | LD50 (Colinus virginianus; acute, oral, mortality) [mg/kg] | NOEC (Colinus virginianus; reproduction developmental, M) [mg/kg-day] | LD50 (Anas platyrhynchos; acute, unspecified) [mg/kg] | LC50 (Anas platyrhynchos; short-term, feed) [mg/kg-day] | NOAEL (Rattus norvegicus; chronic, duration: 2 years, organ weight) [mg/kg-day] | NOAEL (Rattus norvegicus; chronic, no effects) [mg/kg-day] | NOAEL (Rattus norvegicus; subchronic, duration: 90 days, oral, histopathology: nonneoplastic) [mg/kg-day] |
| --- | --- | --- | --- | --- | --- | --- | --- | --- | --- |
| O=C(O)c1ccccc1C(F)(F)F [2-(Trifluoromethyl)benzoic acid] | > 2000 |  |  |  |  |  |  |  |  |
| COCCOC(=O)C(C#N)(C(=O)c1ccccc1C(F)(F)F)c1ccc(C(C)(C)C)cc1 (stereo not given) [Cyflumetofen] | > 2000 | > 1410 | > 2000 | ≥ 84.4 | > 2250 | > 2380 | 16.5 | 34.6 | 16.5 |
